Test results from patent publication US10023602B2, “Hamamelitannin analogues and uses thereof” (Universiteit Gent, priority 2014, dated 2018).

How the values were obtained:
[1] = test system: methicillin resistant S. aureus Mu50 strain (S. aureus ATCC700699) biofilm; experiment: Biofilm susceptibility to vancomycin, pre-treatment regimen (biofilm formed in presence of compound, then vancomycin); format: cell-based; settings: for Pretreat (100 μM): percentage Colony Forming Units (CFU's) per biofilm: compound 100 μM during biofilm formation, then VAN 20 μg/ml, compared to the untreated (negative) control; for EC50: concentration needed to get 50% killing compared to antibiotic alone (VAN 20 μg/ml) and complete killing, read-out: Pretreat. (EC50)
Protocol: (§1) The compounds were evaluated for their effect on biofilm susceptibility both under pre-treatment and combination treatment regimens. In the pre-treatment regimen, a methicillin resistant S. aureus Mu50 strain (S. aureus ATCC700699) was allowed to form biofilms in the presence of the compounds after which the biofilm was treated with vancomycin (20 μg/ml). In the combination treatment regimen, S. aureus Mu50 was allowed to form a mature biofilm after which it was treated with a combination of a compound and vancomycin. In brief, 100 μl of a standardized inoculum (10^8 CFU/ml) was placed in the wells of a round-bottom 96-well microtiter plate. The cells were allowed to adhere to the plate in the absence (combined treatment) or presence (pre-treatment) of the compounds (0.1-250 μM) for 4 h at 37° C. After this adhesion step, non-adhered cells were removed, the wells were rinsed and fresh medium with or without the compounds was added. The plates were incubated for an additional 20 h at 37° C. After this, the medium was removed, biofilms were rinsed with physiological saline and vancomycin (20 μg/ml) was added alone (pre-treatment) or with the compounds (combined treatment, 0.1-250 μM). Plates were placed at 37° C. for 24 h after which medium was removed, wells were rinsed and the surviving cells in each condition were collected. The number of surviving cells under each condition was compared to vancomycin treatment alone and was assessed by conventional plating. The REF compound (hamamelitannin) was also observed for its effect on biofilm susceptibility towards other antibiotics (incl. vancomycin, cefoxitin, tobramycin, cefazolin, cefalonium, daptomycin, linezolide and cephalexin). Biofilms were formed as described above and were treated with the antibiotics alone or in combination with the REF compound (250 μM). The number of surviving cells under each condition was compared to the untreated control biofilm and was assessed by conventional plating.

[2] = test system: methicillin resistant S. aureus Mu50 strain (S. aureus ATCC700699) biofilm; experiment: Biofilm susceptibility to vancomycin, combination treatment regimen (mature biofilm treated with compound plus vancomycin); format: cell-based; settings: for Combin. (100 μM): percentage Colony Forming Units (CFU's) per biofilm: compound 100 μM together with VAN 20 μg/ml on mature biofilm, compared to the untreated (negative) control; for EC50: concentration needed to get 50% killing compared to antibiotic alone (VAN 20 μg/ml) and complete killing, read-out: Combin. (EC50)
Protocol: as §1

Structure (SMILES)	Pretreat (100 μM): percentage Colony Forming Units (CFU's) per biofilm [1] [percentage]	EC50 [1] [µM]	Combin. (100 μM): percentage Colony Forming Units (CFU's) per biofilm [2] [percentage]	EC50 [2] [µM]
O=C(NC[C@]1(O)CO[C@H](CNC(=O)c2ccccc2I)[C@H]1O)c1ccccc1 [compound 179, N-(((2R,3R,4S)-4-(benzamidomethyl)-3,4-dihydroxytetrahydrofuran-2-yl)methyl)-2-iodobenzamide]	3.84	1.85	16.46	20.4
Cc1ccc(C(=O)NC[C@H]2OC[C@@](O)(CNC(=O)c3ccccc3)[C@@H]2O)cc1C [compound 180, N-(((2R,3R,4S)-4-(benzamidomethyl)-3,4-dihydroxytetrahydrofuran-2-yl)methyl)-3,4-dimethylbenzamide]	79.13		65.66	
O=C(NC[C@H]1OC[C@@](O)(CNC(=O)c2ccccc2)[C@@H]1O)c1ccc(F)c(F)c1 [compound 181, N-(((2R,3R,4S)-4-(benzamidomethyl)-3,4-dihydroxytetrahydrofuran-2-yl)methyl)-3,4-difluorobenzamide]	67.74		59.09	
O=C(NC[C@H]1OC[C@@](O)(CNC(=O)c2ccccc2)[C@@H]1O)c1ccc(Cl)c(Cl)c1 [compound 182, N-(((2R,3R,4S)-4-(benzamidomethyl)-3,4-dihydroxytetrahydrofuran-2-yl)methyl)-3,4-dichlorobenzamide]	42.13		33.81	
COc1ccc(C(=O)NC[C@H]2OC[C@@](O)(CNC(=O)c3ccccc3)[C@@H]2O)cc1OC [compound 183, N-(((2R,3R,4S)-4-(benzamidomethyl)-3,4-dihydroxytetrahydrofuran-2-yl)methyl)-3,4-dimethoxybenzamide]	60.04		61.60	
O=C(NC[C@]1(O)CO[C@H](CNC(=O)c2cccc3ccccc23)[C@H]1O)c1ccccc1 [compound 184, N-(((2R,3R,4S)-4-(benzamidomethyl)-3,4-dihydroxytetrahydrofuran-2-yl)methyl)-1-naphthamide]	33.91		40.23	
O=C(NC[C@H]1OC[C@@](O)(CNC(=O)c2ccccc2)[C@@H]1O)c1ccc2ccccc2c1 [compound 185, N-(((2R,3R,4S)-4-(benzamidomethyl)-3,4-dihydroxytetrahydrofuran-2-yl)methyl)-2-naphthamide]	22.11		36.32	
Cn1c(C(=O)NC[C@H]2OC[C@@](O)(CNC(=O)c3ccccc3)[C@@H]2O)cc2ccccc21 [compound 186, N-(((2R,3R,4S)-4-(benzamidomethyl)-3,4-dihydroxytetrahydrofuran-2-yl)methyl)-1-methyl-1H-indole-2-carboxamide]	41.45		42.75	
Cn1cc(C(=O)NC[C@H]2OC[C@@](O)(CNC(=O)c3ccccc3)[C@@H]2O)c2ccccc21 [compound 187, N-(((2R,3R,4S)-4-(benzamidomethyl)-3,4-dihydroxytetrahydrofuran-2-yl)methyl)-1-methyl-1H-indole-3-carboxamide]	32.91		29.24	
O=C(NC[C@H]1OC[C@@](O)(CNC(=O)c2ccccc2)[C@@H]1O)c1ccccc1 [compound 188, N,N′-(((2R,3R,4S)-3,4-dihydroxytetrahydrofuran-2,4-diyl)bis(methylene))dibenzamide]	34.36		34.64	
O=C(Cc1ccccc1)NC[C@H]1OC[C@@](O)(CNC(=O)c2ccccc2)[C@@H]1O [compound 189, N-(((3S,4R,5R)-3,4-dihydroxy-5-((2-phenylacetamido)methyl)tetrahydrofuran-3-yl)methyl)benzamide]	59.77		58.95	
O=C(CCc1ccccc1)NC[C@H]1OC[C@@](O)(CNC(=O)c2ccccc2)[C@@H]1O [compound 190, N-(((3S,4R,5R)-3,4-dihydroxy-5-((3-phenylpropanamido)methyl)tetrahydrofuran-3-yl)methyl)benzamide]	64.43		29.24	
O=C(NC[C@]1(O)CO[C@H](CNC(=O)C2CCCCC2)[C@H]1O)c1ccccc1 [compound 191, N-(((3S,4R,5R)-5-(cyclohexanecarboxamidomethyl)-3,4-dihydroxytetrahydrofuran-3-yl)methyl)benzamide]	32.28		19.28	
O=C(NC[C@]1(O)CO[C@H](CNC(=O)c2c(Cl)cccc2Cl)[C@H]1O)c1ccccc1 [compound 192, N-(((2R,3R,4S)-4-(benzamidomethyl)-3,4-dihydroxytetrahydrofuran-2-yl)methyl)-2,6-dichlorobenzamide]	31.41	59.2	43.74	136
O=C(NC[C@]1(O)CO[C@H](CNC(=O)c2ccc(Cl)cc2Cl)[C@H]1O)c1ccccc1 [compound 193, N-(((2R,3R,4S)-4-(benzamidomethyl)-3,4-dihydroxytetrahydrofuran-2-yl)methyl)-2,4-dichlorobenzamide]	10.80	11.4	11.25	11.7
O=C(NC[C@]1(O)CO[C@H](CNC(=O)c2c(Cl)cc(Cl)cc2Cl)[C@H]1O)c1ccccc1 [compound 194, N-(((2R,3R,4S)-4-(benzamidomethyl)-3,4-dihydroxytetrahydrofuran-2-yl)methyl)-2,4,6-trichlorobenzamide]	20.50		13.31	
O=C(NC[C@]1(O)CO[C@H](CNC(=O)c2c(Cl)cncc2Cl)[C@H]1O)c1ccccc1 [compound 195, N-(((2R,3R,4S)-4-(benzamidomethyl)-3,4-dihydroxytetrahydrofuran-2-yl)methyl)-3,5-dichloroisonicotinamide]	18.31	7.2	18.55	9.26
O=C(NC[C@]1(O)CO[C@H](CNC(=O)c2c(Cl)ccnc2Cl)[C@H]1O)c1ccccc1 [compound 196, N-(((2R,3R,4S)-4-(benzamidomethyl)-3,4-dihydroxytetrahydrofuran-2-yl)methyl)-2,4-dichloronicotinamide]	21.86	13	8.072	7.88
O=C(NC[C@]1(O)CO[C@H](CNC(=O)c2ccc(Cl)nc2Cl)[C@H]1O)c1ccccc1 [compound 197, N-(((2R,3R,4S)-4-(benzamidomethyl)-3,4-dihydroxytetrahydrofuran-2-yl)methyl)-2,6-dichloronicotinamide]	18.75	7.92	16.84	8.27
O=C(NC[C@]1(O)CO[C@H](CNC(=O)c2cnc(Cl)cc2Cl)[C@H]1O)c1ccccc1 [compound 198, N-(((2R,3R,4S)-4-(benzamidomethyl)-3,4-dihydroxytetrahydrofuran-2-yl)methyl)-4,6-dichloronicotinamide]	19.18	10.8	11.25	7.52
O=C(NC[C@]1(O)CO[C@H](CNC(=O)c2cccnc2Cl)[C@H]1O)c1ccccc1 [compound 199, N-(((2R,3R,4S)-4-(benzamidomethyl)-3,4-dihydroxytetrahydrofuran-2-yl)methyl)-2-chloronicotinamide]	68.76	> 250	65.56	> 250
